As a reminder, the melting point is the temperature, or range, at which the solid turns liquid. What is called IC50 is the concentration that inhibits the measured activity by half.

The source of these data is PMC10760875, “Synthesis of alnustone-like diarylpentanoids via a 4 + 1 strategy and assessment of their potential anticancer activity” (Turkish Journal of Chemistry, 2023).

In data set [1] the test system is HPAEpiC cells (pulmonary alveolar epithelial cells). The data set is described as follows: MTT cytotoxicity assay, healthy HPAEpiC. It counts as cell-based. As to conditions: Homo sapiens, Epithelial cell, 48 h, read-out: IC50 against HPAEpiC (healthy cells). How it is done: (§1) GBM (U87-MG), breast cancer (MCF-7), prostate carcinoma (PC-3), and lung epithelium (HPAEpiC) cell lines were used to assess the cytotoxic action potential of compounds 5a–5l. The cells were grown in a single layer in flasks in appropriate medium containing 10% fetal bovine serum (FBS), 1% penicillin/streptomycin, and 1% L-glutamine at 37 °C and 5% CO2 to maintain the pH balance. Cells that had reached 70%–80% confluence were used in the experiments.
(§2) The 3-(4,5-dimethylthiazol-2-yl)-2,5-diphenyltetrazolium bromide (MTT) method is a widely used colorimetric method for the quantitative determination of cell viability. It is based on the reduction of the tetrazolium ring of the yellow dye MTT by living cells. As a result of the reduction, the tetrazolium ring breaks down to form a dark blue-violet formazan compound. Cell viability is then determined spectrophotometrically. The viability of untreated cells is assumed to be 100% and the viability of treated cells is determined as a percentage (%) according to those cells.
(§3) To each 96-well plate, 2 × 10^4 cells were seeded and treated with 6 different concentrations (3.125, 6.25, 12.5, 25, 50, and 100 mg/L) of the 12 tested compounds, and then the plates were incubated in a CO2 oven at 37 °C for 48 h. At the end of the incubation, 10 μL of the MTT mixture was added to each well using a pipette, which was then gently mixed for 1 min on a circular mixer. The cells were incubated in a CO2 oven at 37 °C for 3–4 h. The formazan that formed as a result of the incubation was seen as dark crystals at the bottoms of the wells. The culture medium was carefully aspirated from each well without dispersing the cell layer, and then 100 μL of dimethyl sulfoxide (DMSO) was added to each well and gently stirred on an orbital stirrer to dissolve the formazan crystals. Each sample was read at a wavelength of 570 nm in a spectrophotometer and absorbance values were obtained. A wavelength of 630 nm was used as the reference wavelength.
(§4) Percent viability and cytotoxicity values for each dose administered were calculated according to the following formulas:
(§5) • % Viability = (absorbance of the sample/absorbance of the control) × 100 • % Cytotoxicity = [1 – (absorbance of the sample/absorbance of the control)] × 100
(§6) The IC50 dose, as the concentration of inhibitor that caused a 50% decrease in cell viability, was calculated using Excel regression analysis.
(§7) Human GBM (U87-MG), breast cancer (MCF-7), prostate cancer (PC-3), and pulmonary alveolar epithelial cells (HPAEpiC) cell lines from the American Type Culture Collection (ATCC) were used for the cytotoxicity testing of compounds 5a–5l. The cells were grown as a single layer in appropriate medium containing 10% FBS, 1% penicillin/streptomycin, and 1% L-glutamine at 37 °C and 5% CO2 atmosphere.
(§8) The cytotoxicity analyses of all of the compounds were investigated by determining cell viability based on the colorimetric MTT assay, which was conducted according to the manufacturer’s guide. First, […] were seeded in a 96-well plate and then incubated at 37 °C in a 5% CO2 environment for 24 h. The medium was aspirated the following day, and […] of each concentration of the 12 tested compounds (3.125, 6.25, 12.5, 25, 50, and 100 mg/L) were separately added to each well. The plates were then incubated for 48 h at 37 °C with 5% CO2. Next, 10 μL of MTT solution was added to each well and the plate was incubated for 4 h. The culture medium was aspirated from the wells without dispersing the cell layer and then 100 μL of DMSO was added to each well and stirred on an orbital stirrer to dissolve the formazan crystals. Each sample was read at a wavelength of 570 nm in a spectrophotometer and absorbance values were obtained. A wavelength of 630 nm was used as the reference. Cell viability was expressed as a percentage compared to the untreated cells. All experiments were performed in triplicate.

Data set [2] relates to PC-3 cells (prostate cancer). As to the kind of experiment: MTT cytotoxicity assay, PC-3. Format: cell-based, human. Particulars: for IC50: MTT, 48 h, read-out: IC50 against PC-3; for SI, PC-3 cells: SI = IC50 normal cells (HPAEpiC)/IC50 PC-3. How it is done:
as §1, §2, §3, §4, §5, §6, §7, §8
For orientation: Tetrazolium assays rely on reduction of a dye to a coloured formazan, in cell work by metabolically active cells.

Data set [3] deals with MCF-7 cells (breast cancer). As to the kind of experiment: MTT cytotoxicity assay, MCF-7. Format: cell-based, human. Particulars: for SI, MCF-7 cells: SI = IC50 normal cells (HPAEpiC)/IC50 MCF-7; for IC50: MTT, 48 h, read-out: IC50 against MCF-7. The method, then:
as §1, §2, §3, §4, §5, §6, §7, §8

Data set [4] has as its system U87-MG cells (human glioblastoma). The data set is described as follows: MTT cytotoxicity assay, U87-MG. It counts as cell-based. Particulars: for IC50: Homo sapiens, U-87 MG, MTT, 48 h, read-out: IC50 against U87-MG; for SI, U87-MG cells: SI = IC50 normal cells (HPAEpiC)/IC50 U87-MG. The method, then: as §1, §2, §3, §4, §5, §6, §7, §8

Read-outs that look alike come from different tables or passages of the source.

Compound `O=C(/C=C/c1ccc(O)cc1)CCc1ccccc1` [Compound 5b, (E)-1-(4-hydroxyphenyl)-5-phenylpent-1-en-3-one] returned a melting point of 136 to 137 °C. Moreover, the concentration for half-maximal inhibition (IC50) in data set [1] was 5.51 µM. For the same compound, the 50% inhibitory concentration (IC50) in data set [2] (Homo sapiens, PC-3, 48 h) was below 30 µM. Moreover, in data set [2], the 50% inhibitory concentration (IC50) worked out at 22 µM and the “SI, PC-3 cells” value is reported as 0.25. Besides, in data set [3], the “SI, MCF-7 cells” value turned out to be 0.58. In data set [4], the concentration for half-maximal inhibition (IC50) was determined as 70.9 µM and the “SI, U87-MG cells” value was determined as 0.08.
On to `COc1ccc(/C=C/C(=O)CCc2ccccc2)cc1` [Compound 5c, (E)-1-(4-methoxyphenyl)-5-phenylpent-1-en-3-one], for which the melting point fell in the range of 95 to 96 °C. The half-inhibitory concentration (IC50) in data set [1] was 92.3 µM. Further, the IC50 in data set [2] (Homo sapiens, PC-3, 48 h) came out at 439 µM. Also, the “SI, PC-3 cells” value in data set [2] is listed as 0.21. Also, the half-inhibitory concentration (IC50) in data set [3] (Homo sapiens, MCF7, 48 h) was 50.2 µM. Further, the “SI, MCF-7 cells” value in data set [3] came to 1.84. In data set [4], the IC50 amounted to 213 µM and the “SI, U87-MG cells” value turned out to be 0.42.
In turn, `COc1cc(/C=C/C(=O)CCc2ccccc2)ccc1O` [Compound 5d, (E)-1-(4-hydroxy-3-methoxyphenyl)-5-phenylpent-1-en-3-one] displayed a melting point of 89 to 90 °C. In addition, in data set [1], the half-maximal inhibitory concentration (IC50) came out at 14.4 µM. In data set [2] (Homo sapiens, PC-3, 48 h), the IC50 was below 30 µM. Also, in data set [2], the half-inhibitory concentration (IC50) was 20.9 µM and the “SI, PC-3 cells” value is listed as 0.69. The half-inhibitory concentration (IC50) in data set [3] (Homo sapiens, MCF7, 48 h) is below 30 µM. Moreover, in data set [3], the IC50 turned out to be 27.8 µM and the “SI, MCF-7 cells” value is on record as 0.52. Besides, in data set [4], the half-maximal inhibitory concentration (IC50) turned out to be 31.9 µM and the “SI, U87-MG cells” value came to 0.45.
On to `COc1ccc(/C=C/C(=O)CCc2ccccc2)cc1O` [Compound 5e, (E)-1-(3-hydroxy-4-methoxyphenyl)-5-phenylpent-1-en-3-one], for which the melting point was 94 to 95 °C. Further, the half-inhibitory concentration (IC50) in data set [1] was found to be 26.4 µM. For the same compound, in data set [2] (Homo sapiens, PC-3, 48 h), the IC50 was 95.8 µM. Moreover, the “SI, PC-3 cells” value in data set [2] came to 0.28. Moreover, the IC50 in data set [3] (Homo sapiens, MCF7, 48 h) is below 30 µM. In addition, in data set [3], the IC50 worked out at 21.8 µM and the “SI, MCF-7 cells” value came to 1.21. In data set [4], the IC50 amounted to 133 µM and the “SI, U87-MG cells” value was 0.20.
For `O=C(/C=C/c1ccc(O)c(O)c1)CCc1ccccc1` [Compound 5f, (E)-1-(3,4-dihydroxyphenyl)-5-phenylpent-1-en-3-one], the 50% inhibitory concentration (IC50) in data set [1] worked out at 43.1 µM; in data set [2] (Homo sapiens, PC-3, 48 h) it was 97.5 µM; in data set [3] (Homo sapiens, MCF7, 48 h) it was 544 µM; in data set [4], 33.4 µM. Further, the “SI, PC-3 cells” value in data set [2] is given as 0.44. In addition, the “SI, MCF-7 cells” value in data set [3] amounted to 0.08. Moreover, in data set [4], the “SI, U87-MG cells” value is on record as 1.29.
`O=C(/C=C/c1ccccc1)CCc1ccc(O)cc1` [Compound 5g, (E)-5-(4-hydroxyphenyl)-1-phenylpent-1-en-3-one] yielded a melting point of 96 to 97 °C. Besides, the IC50 in data set [1] came out at 21.1 µM. For the same compound, the IC50 in data set [2] (Homo sapiens, PC-3, 48 h) was found to be 291 µM. Further, the “SI, PC-3 cells” value in data set [2] was 0.07. For the same compound, the IC50 in data set [3] (Homo sapiens, MCF7, 48 h) is below 30 µM. Also, in data set [3], the IC50 worked out at 16.2 µM and the “SI, MCF-7 cells” value is listed as 1.31. For the same compound, in data set [4], the IC50 worked out at 128 µM and the “SI, U87-MG cells” value worked out at 0.17.
`O=C(/C=C/c1ccc(O)cc1)CCc1ccc(O)cc1` [Compound 5h, (E) 1,5-bis(4-hydroxyphenyl)pent-1-en-3-one] displayed a melting point of 146 to 147 °C. For the same compound, in data set [1], the IC50 was found to be 51.4 µM. Besides, the IC50 in data set [2] (Homo sapiens, PC-3, 48 h) turned out to be 437 µM. For the same compound, the “SI, PC-3 cells” value in data set [2] stood at 0.12. The IC50 in data set [3] (Homo sapiens, MCF7, 48 h) is below 30 µM. In addition, in data set [3], the half-maximal inhibitory concentration (IC50) came to 26.7 µM and the “SI, MCF-7 cells” value was 1.92. Moreover, in data set [4], the half-inhibitory concentration (IC50) was determined as 358 µM and the “SI, U87-MG cells” value came to 0.14.
Regarding `COc1cc(/C=C/C(=O)CCc2ccc(O)cc2)ccc1O` [Compound 5j, (E)-1-(4-hydroxy-3-methoxyphenyl)-5-(4-hydroxyphenyl)pent-1-en-3-one], the melting point was in the range of 131 to 132 °C. Further, in data set [1], the IC50 amounted to 93.4 µM. In addition, in data set [2] (Homo sapiens, PC-3, 48 h), the IC50 turned out to be 32.2 µM. The “SI, PC-3 cells” value in data set [2] is 2.90. The IC50 in data set [3] (Homo sapiens, MCF7, 48 h) came to 35 µM. The “SI, MCF-7 cells” value in data set [3] amounted to 2.67. Further, in data set [4], the 50% inhibitory concentration (IC50) worked out at 75.7 µM and the “SI, U87-MG cells” value is 1.23.
The compound `COc1ccc(/C=C/C(=O)CCc2ccc(O)cc2)cc1O` [Compound 5k, (E)-1-(3-hydroxy-4-methoxyphenyl)-5-(4-hydroxyphenyl)pent-1-en-3-one] yielded a melting point of 130 to 131 °C. Moreover, the IC50 in data set [1] is 69.3 µM. Also, in data set [2] (Homo sapiens, PC-3, 48 h), the IC50 came out at 45.1 µM. For the same compound, in data set [2], the “SI, PC-3 cells” value is 1.54. Also, the IC50 in data set [3] (Homo sapiens, MCF7, 48 h) came out at 203 µM. Further, the “SI, MCF-7 cells” value in data set [3] is 0.34. Also, in data set [4], the half-maximal inhibitory concentration (IC50) was found to be 52.6 µM and the “SI, U87-MG cells” value was found to be 1.32.
Consider `O=C(/C=C/c1ccc(O)c(O)c1)CCc1ccc(O)cc1` [Compound 5l, (E)-1-(3,4-dihydroxyphenyl)-5-(4-hydroxyphenyl)pent-1-en-3-one], for which the melting point was in the range of 202 to 203 °C. The IC50 in data set [1] was determined as 396 µM. Moreover, the IC50 in data set [2] (Homo sapiens, PC-3, 48 h) worked out at 185 µM. The “SI, PC-3 cells” value in data set [2] was determined as 2.14. Besides, the IC50 in data set [3] (Homo sapiens, MCF7, 48 h) was determined as 317 µM. The “SI, MCF-7 cells” value in data set [3] was 1.25. Besides, in data set [4], the 50% inhibitory concentration (IC50) turned out to be 287 µM and the “SI, U87-MG cells” value stood at 1.38.
Take `COc1cccc2c1C(=O)c1c(O)c3c(c(O)c1C2=O)C[C@@](O)(C(=O)CO)C[C@@H]3O[C@H]1C[C@H](N)[C@H](O)[C@H](C)O1` [DOX control (+), doxorubicin, reference compound]: the IC50 in data set [1] came out at 64.4 µM; in data set [2] (Homo sapiens, PC-3, 48 h), 6.76 µM; in data set [3] (Homo sapiens, MCF7, 48 h), 14.7 µM; in data set [4], 8.95 µM. Further, in data set [2], the “SI, PC-3 cells” value was determined as 9.53. In addition, the “SI, MCF-7 cells” value in data set [3] is 4.38. Also, the “SI, U87-MG cells” value in data set [4] was 7.20.
